Here are results for 43 compounds from patent US20250326732A1 (Pretzel Therapeutics, Inc., priority 2021, published 2025).

In general, IC50 refers to the concentration that inhibits the measured activity by half. Read a low IC50 as inhibition by little substance.

This experiment concerns the target POLRMT (Homo sapiens (Human), UniProt O00411). In words: homogeneous TR-FRET assay of mitochondrial transcription (inhibition of POLRMT). Format: biochemical. Particulars: 7.5 nM POLRMT, 15 nM TFB2M, 30 nM TFAM, 0.5 nM DNA template, 500 μM NTPs, 37° C. for 60 minutes. The essentials:
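POLRMT transcription from linearized pUC-LSP DNA template; RNA product detected by hybridization of ATTO647 acceptor (1 nM) and biotinylated donor (3 nM) probes plus Europium-streptavidin. Reaction stopped with EDTA/700 mM NaCl buffer, pH 7.5.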
In general terms: TR-FRET usually uses a lanthanide donor and a delayed reading to cut background.

POLRMT, sequence (O00411 42-1230): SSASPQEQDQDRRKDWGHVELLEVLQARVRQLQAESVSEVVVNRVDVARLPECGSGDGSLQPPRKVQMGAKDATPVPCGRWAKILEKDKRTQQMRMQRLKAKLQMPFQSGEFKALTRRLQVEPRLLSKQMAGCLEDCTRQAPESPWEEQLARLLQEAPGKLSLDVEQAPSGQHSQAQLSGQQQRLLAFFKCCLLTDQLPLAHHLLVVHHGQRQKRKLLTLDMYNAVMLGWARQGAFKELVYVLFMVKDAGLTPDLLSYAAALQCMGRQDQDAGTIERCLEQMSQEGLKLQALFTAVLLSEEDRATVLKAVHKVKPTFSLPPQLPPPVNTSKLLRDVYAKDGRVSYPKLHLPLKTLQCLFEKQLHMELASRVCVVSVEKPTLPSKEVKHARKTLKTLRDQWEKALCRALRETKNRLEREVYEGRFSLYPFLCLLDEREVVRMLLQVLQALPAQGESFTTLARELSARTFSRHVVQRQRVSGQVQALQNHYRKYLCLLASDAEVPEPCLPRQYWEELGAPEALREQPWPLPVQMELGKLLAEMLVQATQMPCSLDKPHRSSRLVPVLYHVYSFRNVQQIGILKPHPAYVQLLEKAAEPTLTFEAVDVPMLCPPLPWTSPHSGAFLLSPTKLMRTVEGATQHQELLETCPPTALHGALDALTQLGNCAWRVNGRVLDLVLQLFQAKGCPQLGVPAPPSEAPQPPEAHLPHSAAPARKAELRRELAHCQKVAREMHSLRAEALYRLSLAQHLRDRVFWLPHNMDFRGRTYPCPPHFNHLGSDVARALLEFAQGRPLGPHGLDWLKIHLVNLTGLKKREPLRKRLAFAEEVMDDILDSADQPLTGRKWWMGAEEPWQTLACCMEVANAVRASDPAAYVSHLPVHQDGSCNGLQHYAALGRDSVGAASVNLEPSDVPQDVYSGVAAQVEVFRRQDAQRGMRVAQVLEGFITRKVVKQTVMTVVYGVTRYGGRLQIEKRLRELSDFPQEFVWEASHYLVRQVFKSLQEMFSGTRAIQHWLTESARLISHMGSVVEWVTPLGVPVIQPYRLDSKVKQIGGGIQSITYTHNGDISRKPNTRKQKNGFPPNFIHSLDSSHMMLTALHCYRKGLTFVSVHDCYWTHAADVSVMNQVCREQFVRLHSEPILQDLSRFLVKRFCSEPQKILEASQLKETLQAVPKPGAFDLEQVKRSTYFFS

Consider `COC(=O)CC(C)c1ccc2c(-c3ccccc3C)cc(=O)oc2c1` (stereo not shown) [Example 58, methyl 3-(2-oxo-4-(o-tolyl)-2H-chromen-7-yl)butanoate], for which half-maximal inhibition (IC50) required 3 µM. `COc1ccccc1-c1cc(=O)oc2cc(NC(C)=O)ccc12` [Example 29, N-(4-(2-methoxyphenyl)-2-oxo-2H-chromen-7-yl)acetamide]: the IC50 was greater than 100 µM.

For the compound `C[C@H](C(=O)N1CCCCC1)N(C)c1ccc2c(-c3ccc(F)cc3Cl)cc(=O)oc2c1` [Example 45, (R)-4-(2-chloro-4-fluorophenyl)-7-(methyl(1-oxo-1-(piperidin-1-yl)propan-2-yl)amino)-2H-chromen-2-one], the IC50 came to 0.05 µM.

The compound `CN(CCC(N)=O)c1ccc2c(-c3ccc(F)cc3Cl)cc(=O)oc2c1` [Example 137, 3-((4-(2-chloro-4-fluorophenyl)-2-oxo-2H-chromen-7-yl)(methyl)amino)propanamide] returned an IC50 of 0.9 µM. In the case of `Cc1ccc2c(-c3ccccc3C)cc(=O)oc2c1` [Example 39, 7-methyl-4-(o-tolyl)-2H-chromen-2-one] it was 0.7 µM; in that of `CC(=O)NC1CCN(C(=O)c2ccc3c(-c4ccccc4C)cc(=O)oc3c2)CC1` [Example 109, N-(1-(2-oxo-4-(o-tolyl)-2H-chromene-7-carbonyl)piperidin-4-yl)acetamide], 5 µM; in that of `Cc1ccccc1-c1cc(=O)oc2cc(CC(C)C(=O)N3CCC[C@H](C#N)C3)ccc12` (single isomer, unassigned) [Example 84], 32 µM. In the case of `Cc1ccccc1-c1cc(=O)oc2cc(C(=O)NC3CCCC3)ccc12` [Example 36, N-cyclopentyl-2-oxo-4-(o-tolyl)-2H-chromene-7-carboxamide] it was 2 µM; in that of `CC(=O)NC[C@H]1CCN(C(=O)c2ccc3c(-c4ccccc4C)cc(=O)oc3c2)C1` [Example 174, (R)—N-((1-(2-oxo-4-(o-tolyl)-2H-chromene-7-carbonyl)pyrrolidin-3-yl)methyl)acetamide], 47 µM. In turn, `CCOC(=O)C(C)Cc1ccc2c(-c3ccccc3C)cc(=O)oc2c1` (stereo not shown) [Example 51, ethyl 2-methyl-3-[4-(o-tolyl)-2-oxo-chromen-7-yl]propanoate] returned an IC50 of 0.3 µM. Compound `Cc1ccccc1-c1cc(=O)oc2cc(N(C)Cc3ccon3)ccc12` [Example 204, 7-((isoxazol-3-ylmethyl)(methyl)amino)-4-(o-tolyl)-2H-chromen-2-one] registered an IC50 of 0.03 µM. `Cc1ccccc1-c1cc(=O)oc2cc(N(C)CCC(N)=O)ccc12` [Example 133, 3-(methyl(2-oxo-4-(o-tolyl)-2H-chromen-7-yl)amino)propanamide] registered an IC50 of 0.7 µM. In the case of `CNC(=O)CN(C)c1ccc2c(-c3ccccc3C)cc(=O)oc2c1` [Example 177, N-methyl-2-(methyl(2-oxo-4-(o-tolyl)-2H-chromen-7-yl)amino)acetamide] it was 0.05 µM; in that of `Cc1cc(O[C@H](C)C(=O)N(C)C)c2c(-c3ccc(F)cc3)cc(=O)oc2c1` [Example 162, (R)-2-((4-(4-fluorophenyl)-7-methyl-2-oxo-2H-chromen-5-yl)oxy)-N,N-dimethylpropanamide], greater than 100 µM; in that of `Cc1ccccc1-c1cc(=O)oc2cc(N[C@@H](CC(C)C)C(=O)O)ccc12` [Example 73, (2-oxo-4-(o-tolyl)-2H-chromen-7-yl)-L-leucine], 3 µM. On to `COCC(C#N)Cc1ccc2c(-c3ccccc3C)cc(=O)oc2c1` (stereo not shown) [Example 201, 3-methoxy-2-((2-oxo-4-(o-tolyl)-2H-chromen-7-yl)methyl)propanenitrile], for which the IC50 is 2 µM.

On to `CNC(=O)C(C)Cc1ccc2c(-c3ccccc3C)cc(=O)oc2c1` (single isomer, unassigned) [Example 66, N,2-dimethyl-3-(2-oxo-4-(o-tolyl)-2H-chromen-7-yl)propanamide], for which the IC50 is 0.5 µM. Compared with the last compound, the IC50 is about 4-fold lower. In the case of `COC(=O)/C=C(\C)c1ccc2c(-c3ccccc3C)cc(=O)oc2c1` [Example 57, methyl (E)-3-(2-oxo-4-(o-tolyl)-2H-chromen-7-yl)but-2-enoate] it was 0.3 µM; in that of `Cc1ccccc1-c1cc(=O)oc2cc(NCC(=O)OC(C)(C)C)ccc12` [Example 61, tert-butyl (2-oxo-4-(o-tolyl)-2H-chromen-7-yl)glycinate], 0.9 µM. The figure for `COC(=O)CN(C)c1ccc2c(-c3ccccc3C)cc(=O)oc2c1` [Example 143, methyl N-methyl-N-(2-oxo-4-(o-tolyl)-2H-chromen-7-yl)glycinate] is 0.03 µM.

The compound `Cc1ccccc1-c1cc(=O)oc2cc(CC(C)C(N)=O)ccc12` (single isomer, unassigned) [Example 69, 2-methyl-3-(2-oxo-4-(o-tolyl)-2H-chromen-7-yl)propanamide] registered an IC50 of 5 µM. In turn, `Cc1ccccc1-c1cc(=O)oc2cc(NCC(=O)N3CCCCC3)ccc12` [Example 72, 7-((2-oxo-2-(piperidin-1-yl)ethyl)amino)-4-(o-tolyl)-2H-chromen-2-one] yielded an IC50 of 3 µM. In the case of `Cc1ccccc1-c1cc(=O)oc2cc(NCc3nccs3)ccc12` [Example 165, 7-((thiazol-2-ylmethyl)amino)-4-(o-tolyl)-2H-chromen-2-one] it was 3 µM. In the case of `CC(=O)N(C)c1ccc2c(-c3ccccc3C)cc(=O)oc2c1` [Example 44, N-methyl-N-(2-oxo-4-(o-tolyl)-2H-chromen-7-yl)acetamide] it was 12 µM; in that of `Cc1ccccc1-c1cc(=O)oc2cc(C(C)CC(=O)N3CCCCC3)ccc12` (stereo not shown) [Example 59, 7-(4-oxo-4-(piperidin-1-yl)butan-2-yl)-4-(o-tolyl)-2H-chromen-2-one], 2 µM. In the case of `Cc1ccccc1-c1cc(=O)oc2cc(CC(C)C(=O)O)ccc12` (stereo not shown) [Example 52, 2-methyl-3-[4-(o-tolyl)-2-oxo-chromen-7-yl]propanoic acid] it was 0.2 µM; in that of `Cc1ccccc1-c1cc(=O)oc2cc(N(C)Cc3nnn[nH]3)ccc12` [Example 179, 7-(((1H-tetrazol-5-yl)methyl)(methyl)amino)-4-(o-tolyl)-2H-chromen-2-one], 0.1 µM. Compound `Cc1ccccc1-c1cc(=O)oc2cc(N(C)Cc3nccs3)ccc12` [Example 167, 7-(methyl(thiazol-2-ylmethyl)amino)-4-(o-tolyl)-2H-chromen-2-one] came in with an IC50 of 0.1 µM. In the case of `Cc1ccccc1-c1cc(=O)oc2cc(C(=O)NCC(N)=O)ccc12` [Example 113, N-(2-amino-2-oxoethyl)-2-oxo-4-(o-tolyl)-2H-chromene-7-carboxamide] it was 12 µM; in that of `C[C@@H](Nc1ccc2c(-c3ccc(F)cc3Cl)cc(=O)oc2c1)C(=O)N1CCCCC1` [Example 27, (R)-4-(2-chloro-4-fluorophenyl)-7-((1-oxo-1-(piperidin-1-yl)propan-2-yl)amino)-2H-chromen-2-one], 0.1 µM. Regarding `CC(=O)Nc1ccc2c(-c3ccccc3C)cc(=O)oc2c1` [Example 32, N-(2-oxo-4-(o-tolyl)-2H-chromen-7-yl)acetamide], the half-inhibitory concentration (IC50) worked out at 0.4 µM. Against the preceding compound, the IC50 is about 4-fold higher. The figure for `CCOC(=O)[C@@H]1C[C@@H]1c1ccc2c(-c3ccccc3C)cc(=O)oc2c1` [Example 224, ethyl (1R,2S)-2-(2-oxo-4-(o-tolyl)-2H-chromen-7-yl)cyclopropane-1-carboxylate] is 0.3 µM; for `C[C@H](Cc1ccc2c(-c3ccc(F)cc3Cl)cc(=O)oc2c1)C(=O)N1CCCCC1` [Example 19, (R)-4-(2-chloro-4-fluorophenyl)-7-(2-methyl-3-oxo-3-(piperidin-1-yl)propyl)-2H-chromen-2-one] it is 24 µM; for `COCc1cc(C)c2c(-c3ccccc3C)cc(=O)oc2c1` [Example 163, 7-(methoxymethyl)-5-methyl-4-(o-tolyl)-2H-chromen-2-one] it is 0.5 µM. The figure for `COC(=O)C(C)Cc1ccc2c(-c3ccc(F)cc3Cl)cc(=O)oc2c1` (stereo not shown) [Example 15, methyl 3-(4-(2-chloro-4-fluorophenyl)-2-oxo-2H-chromen-7-yl)-2-methylpropanoate] is 2 µM; for `CN(CC(=O)O)c1ccc2c(-c3ccccc3)cc(=O)oc2c1` [Example 101, N-methyl-N-(2-oxo-4-phenyl-2H-chromen-7-yl)glycine] it is 10 µM; for `CN(CCC(=O)O)c1ccc2c(-c3ccc(F)cc3Cl)cc(=O)oc2c1` [Example 130, 3-((4-(2-chloro-4-fluorophenyl)-2-oxo-2H-chromen-7-yl)(methyl)amino)propanoic acid] it is 0.4 µM.

Compound `Cc1ccccc1-c1cc(=O)oc2cc(C(=O)N(C)CC(N)=O)ccc12` [Example 112, N-(2-amino-2-oxoethyl)-N-methyl-2-oxo-4-(o-tolyl)-2H-chromene-7-carboxamide] gave a 50% inhibitory concentration (IC50) of 27 µM. This IC50 is about 68-fold higher than that of the compound before.

In turn, `C[C@@H](Cc1ccc2c(-c3ccc(F)cc3Cl)cc(=O)oc2c1)C(=O)N(C)C` [Example 20, (S)-3-(4-(2-chloro-4-fluorophenyl)-2-oxo-2H-chromen-7-yl)-N,N,2-trimethylpropanamide] registered an IC50 of 0.8 µM. Compound `CN(CC(=O)O)c1ccc2c(-c3ccc(F)cc3Cl)cc(=O)oc2c1` [Example 105, N-(4-(2-chloro-4-fluorophenyl)-2-oxo-2H-chromen-7-yl)-N-methylglycine] had an IC50 of 0.5 µM. In the case of `COC(C)c1ccc2c(-c3ccccc3C)cc(=O)oc2c1` (stereo not shown) [Example 74, 7-(1-methoxyethyl)-4-(o-tolyl)-2H-chromen-2-one] it was 0.7 µM; in that of `COC[C@@H](Nc1ccc2c(-c3ccccc3C)cc(=O)oc2c1)C(=O)N1CCC[C@H](C(=O)O)C1` [Example 104, (S)-1-(O-methyl-N-(2-oxo-4-(o-tolyl)-2H-chromen-7-yl)-D-seryl)piperidine-3-carboxylic acid], 0.3 µM; in that of `Cc1ccccc1-c1cc(=O)oc2cc(C(=O)N3CCC(CN(C)C)C3)ccc12` (stereo not shown) [Example 181, 7-(3-((dimethylamino)methyl)pyrrolidine-1-carbonyl)-4-(o-tolyl)-2H-chromen-2-one], greater than 100 µM.
